Experiments:
Type in all cases: biochemical
[1] = target: T1, PDGFRβ kinase (Homo sapiens, UniProt P09619); assay: In vitro PDGFRβ kinase assay
T1 construct: purchased Invitrogen Inc. P3082
Description: (§1) In Vitro VEGFR2 and PDGFRP Kinase Assays
(§2) 2.5 μl of ADP Quest assay buffer (DiscoverX Inc., cat. #90-0071) containing 20 ng VEGFR2 kinase (Invitrogen Inc, cat. #PV3660) or 25 ng PDGFRβ kinase (Invitrogen Inc., cat. #P3082) is dispensed to wells of a 1536 multi-well, black solid plate. 60 nl of 100× concentration of test compound in DMSO is dispensed to the well by passive pin transfer and incubated for 10 minutes at room temperature (approx. 22° C.). 2.5 μl of ADP Quest assay buffer containing 0.25 μg of poly Glu:Tyr (4:1) substrate peptide (Upstate Inc., cat. #12-440) and 60 μM ATP is then dispensed and the kinase reaction allowed to incubate at 30° C. for 2 hours. The assay plates are sealed and maintained in a humidified environment. After the 2 hour incubation, 2 μl of ADP Quest assay reagent A, followed by 2 μl of assay reagent B, is added. After an additional 30 minute incubation at room temperature, fluorescence intensity is measured on a Molecular Devices Aquest multi-mode plate reader or other suitable plate reader (fluorescence excitation filter: 530/25 [Peak(nm)/FWHM passband(nm)]; dichroic beamsplitter: 561 nm longpass; fluorescence emission filter: 580/10 [Peak(nm)/FWHM passband(nm)]. The assay measures the conversion of a non-fluoresecent molecule to fluorescent resorufin, which correlates with kinase activity. Negative control activity is measured with DMSO lacking any test compound. The positive control is [N-(3-trifluoromethyl-4-chlorophenyl)-N′-(4-(2-methylcarbamoyl-pyridin-4-yl)oxyphenyl)urea], aka Bay 43-9006. Efficacy is measured as a percentage of positive control activity.

[2] = target: T2, VEGFR2 kinase (Homo sapiens, UniProt P35968); assay: In vitro VEGFR2 kinase assay
T2 construct: purchased Invitrogen Inc PV3660
T2 sequence (P35968 20-1356): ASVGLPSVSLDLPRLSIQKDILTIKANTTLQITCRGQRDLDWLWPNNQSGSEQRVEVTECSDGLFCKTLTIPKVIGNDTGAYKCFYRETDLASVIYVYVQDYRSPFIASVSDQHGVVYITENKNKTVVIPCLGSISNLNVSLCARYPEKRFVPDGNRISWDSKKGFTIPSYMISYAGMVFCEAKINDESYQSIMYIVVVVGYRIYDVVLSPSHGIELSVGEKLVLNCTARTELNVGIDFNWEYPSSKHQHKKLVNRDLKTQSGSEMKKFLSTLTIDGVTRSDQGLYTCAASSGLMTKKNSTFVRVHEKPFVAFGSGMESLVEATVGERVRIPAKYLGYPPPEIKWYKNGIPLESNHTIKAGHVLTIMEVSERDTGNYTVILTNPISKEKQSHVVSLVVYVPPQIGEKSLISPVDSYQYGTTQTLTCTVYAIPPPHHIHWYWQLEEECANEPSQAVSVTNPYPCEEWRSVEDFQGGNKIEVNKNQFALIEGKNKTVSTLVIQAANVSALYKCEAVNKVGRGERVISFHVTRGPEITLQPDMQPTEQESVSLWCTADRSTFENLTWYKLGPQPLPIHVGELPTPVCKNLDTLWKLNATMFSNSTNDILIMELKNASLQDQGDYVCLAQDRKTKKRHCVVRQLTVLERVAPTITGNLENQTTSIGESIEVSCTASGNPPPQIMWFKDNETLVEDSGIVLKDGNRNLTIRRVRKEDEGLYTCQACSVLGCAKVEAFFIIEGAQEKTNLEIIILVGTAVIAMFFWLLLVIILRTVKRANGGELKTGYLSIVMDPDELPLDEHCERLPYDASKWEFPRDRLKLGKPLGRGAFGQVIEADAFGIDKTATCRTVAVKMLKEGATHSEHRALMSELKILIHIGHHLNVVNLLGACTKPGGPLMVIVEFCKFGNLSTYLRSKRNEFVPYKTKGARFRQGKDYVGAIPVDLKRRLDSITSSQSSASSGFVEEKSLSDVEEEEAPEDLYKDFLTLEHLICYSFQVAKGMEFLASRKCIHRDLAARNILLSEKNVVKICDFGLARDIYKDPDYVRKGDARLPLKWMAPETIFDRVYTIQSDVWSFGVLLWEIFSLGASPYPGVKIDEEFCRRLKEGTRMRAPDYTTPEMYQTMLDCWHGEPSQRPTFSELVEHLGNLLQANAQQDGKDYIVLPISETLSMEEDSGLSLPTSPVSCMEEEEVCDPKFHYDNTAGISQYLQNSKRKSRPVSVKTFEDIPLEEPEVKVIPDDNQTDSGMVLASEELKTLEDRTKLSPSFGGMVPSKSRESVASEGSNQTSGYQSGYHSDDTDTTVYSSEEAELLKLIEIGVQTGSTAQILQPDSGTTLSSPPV
Description: as §1, §2

[3] = target: T3, human B-Raf protein kinase (Homo sapiens, UniProt P15056); assay: In vitro B-Raf/Mek1 composite kinase assay
T3 construct: GST (N); purchased Upstate Inc. 14-530 (B-Raf); 14-420 (Mek1)
T3 sequence (P15056 416-766): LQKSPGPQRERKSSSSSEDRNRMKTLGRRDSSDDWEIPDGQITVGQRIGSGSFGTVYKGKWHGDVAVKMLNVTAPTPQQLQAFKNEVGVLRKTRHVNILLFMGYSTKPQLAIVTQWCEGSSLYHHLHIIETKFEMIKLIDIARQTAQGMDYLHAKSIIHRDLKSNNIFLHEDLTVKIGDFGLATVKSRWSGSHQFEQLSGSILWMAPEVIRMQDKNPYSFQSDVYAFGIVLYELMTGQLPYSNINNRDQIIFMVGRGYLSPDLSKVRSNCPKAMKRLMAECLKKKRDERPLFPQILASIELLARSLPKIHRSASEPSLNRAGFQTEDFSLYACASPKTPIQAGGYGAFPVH
Description: In Vitro B-Raf/Mek1 Composite Kinase Assay
2.5 μl of B-Raf kinase buffer (20 mM MOPS [pH 7.2], 25 mM sodium glycerophosphate, 2 mM EGTA [pH 8.0], 1 mM sodium orthovanadate, 1 mM dithiothreitol, 10 mM MgCl2, 0.03% Brij-35, 0.3 mg/ml bovine serum albumin) containing lng of recombinant, N-terminal GST-tagged human B-Raf protein kinase (Δ1-415, Upstate Inc., cat. #14-530) is dispensed to wells of a 1536 multi-well white solid plate. 60 nl of 100× concentration of test compound in DMSO is dispensed to the well by passive pin transfer and incubated for 15 minutes at room temperature (approx. 22° C.). […] The assay plates are sealed and maintained in a humidified environment. After 2 hours, 2.5 μl of PKLight protein kinase assay reagent (Cambrex, cat. #LT07-501) is dispensed. After an additional 5 minute incubation at room temperature, luminescence activity is measured on a Molecular Devices Analyst multi-mode plate reader or other suitable plate reader. Kinase inhibition results in less ATP depletion, and therefore increased luminescence signal. Negative control activity is measured with DMSO lacking any test compound. The positive control is [N-(3-trifluoromethyl-4-chlorophenyl)-N′-(4-(2-methylcarbamoyl-pyridin-4-yl)oxyphenyl)urea], aka Bay 43-9006. Efficacy is measured as a percentage of positive control activity.

T1 sequence (P09619 33-1106): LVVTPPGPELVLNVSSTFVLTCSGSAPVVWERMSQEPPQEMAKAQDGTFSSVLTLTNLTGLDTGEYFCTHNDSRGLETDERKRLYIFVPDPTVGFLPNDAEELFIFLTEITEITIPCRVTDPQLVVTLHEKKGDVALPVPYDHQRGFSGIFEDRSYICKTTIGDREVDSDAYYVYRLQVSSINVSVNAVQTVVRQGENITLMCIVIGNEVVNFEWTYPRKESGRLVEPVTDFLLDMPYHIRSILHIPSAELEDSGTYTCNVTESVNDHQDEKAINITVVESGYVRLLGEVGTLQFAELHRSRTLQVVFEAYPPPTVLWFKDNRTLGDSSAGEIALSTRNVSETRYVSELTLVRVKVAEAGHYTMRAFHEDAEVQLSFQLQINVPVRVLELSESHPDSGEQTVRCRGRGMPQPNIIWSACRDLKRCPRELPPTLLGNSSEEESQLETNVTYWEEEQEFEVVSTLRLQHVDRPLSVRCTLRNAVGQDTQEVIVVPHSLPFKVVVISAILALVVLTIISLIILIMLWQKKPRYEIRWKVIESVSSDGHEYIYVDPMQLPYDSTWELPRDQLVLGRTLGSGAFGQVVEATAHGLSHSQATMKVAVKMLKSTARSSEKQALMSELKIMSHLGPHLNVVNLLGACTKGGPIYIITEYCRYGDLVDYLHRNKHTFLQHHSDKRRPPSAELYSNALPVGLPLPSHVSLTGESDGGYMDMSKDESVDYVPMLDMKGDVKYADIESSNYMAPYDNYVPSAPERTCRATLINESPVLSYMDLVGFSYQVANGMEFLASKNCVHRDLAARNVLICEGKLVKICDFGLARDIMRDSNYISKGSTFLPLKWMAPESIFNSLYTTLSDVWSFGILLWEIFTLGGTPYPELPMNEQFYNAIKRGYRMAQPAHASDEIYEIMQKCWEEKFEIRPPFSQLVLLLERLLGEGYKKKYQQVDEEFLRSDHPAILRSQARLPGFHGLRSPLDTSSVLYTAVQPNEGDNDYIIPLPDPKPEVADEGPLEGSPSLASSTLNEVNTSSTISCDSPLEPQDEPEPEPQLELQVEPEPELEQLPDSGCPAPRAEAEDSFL

| IC50 [1] [µM] | IC50 [2] [µM] | IC50 [3] [µM] | Structure (SMILES) |
| --- | --- | --- | --- |
| > 10 | > 10 | > 10 | Cn1cc(-c2cc(Oc3cccc(NC(=O)c4cncc(-n5cccc5)c4)c3)ccn2)cn1 [Example 35, N-(3-(2-(1-Methyl-1H-pyrazol-4-yl)pyridin-4-yloxy)phenyl)-5-(1H-pyrrol-1-yl)nicotinamide] |
| > 10 | ≤ 10 | > 10 | O=C(Nc1cccc(Oc2ccnc(-c3nnco3)c2)c1)c1ccc2c(c1)OCCCO2 [Example 6, N-(3-(2-(1,3,4-Oxadiazol-2-yl)pyridin-4-yloxy)phenyl)-3,4-dihydro-2H-benzo[b][1,4]dioxepine-7-carboxamide] |
| > 10 | > 10 | > 10 | Cn1cc(-c2cc(Oc3cccc(NC(=O)c4ccc5c(c4)OC(F)(F)O5)c3)ccn2)cn1 [Example 62, 2,2-Difluoro-N-(3-(2-(1-methyl-1H-pyrazol-4-yl)pyridin-4-yloxy)phenyl)benzo[d][1,3]dioxole-5-carboxamide] |
| > 10 | > 10 | ≤ 10 | Cn1cc(-c2cc(Oc3cccc(NC(=O)c4cccc5c4OCC5)c3)ccn2)cn1 [Example 68, N-(3-(2-(1-Methyl-1H-pyrazol-4-yl)pyridin-4-yloxy)phenyl)-2,3-dihydrobenzofuran-7-carboxamide] |
| > 10 | > 10 | ≤ 10 | Cn1cc(-c2cc(Oc3cccc(NC(=O)c4ccc(-n5ccnc5)cc4)c3)ccn2)cn1 [Example 60, 4-(1H-Imidazol-1-yl)-N-(3-(2-(1-methyl-1H-pyrazol-4-yl)pyridin-4-yloxy)phenyl)benzamide] |
| > 10 | > 10 | > 10 | CCOc1cc(OCC)cc(C(=O)Nc2cccc(Oc3ccnc(-c4nnco4)c3)c2)c1 [Example 7, N-(3-(2-(1,3,4-Oxadiazol-2-yl)pyridin-4-yloxy)phenyl)-3,5-diethoxybenzamide] |
| > 10 | > 10 | > 10 | CN(C)c1cccc(C(=O)Nc2cccc(Oc3ccnc(-c4cnn(C)c4)c3)c2)c1 [Example 28, 3-(Dimethylamino)-N-(3-(2-(1-methyl-1H-pyrazol-4-yl)pyridin-4-yloxy)phenyl)benzamide] |
| > 10 | > 10 | > 10 | Cn1cc(-c2cc(Oc3ccc(F)c(NC(=O)c4ccc(Cl)c(C(F)(F)F)c4)c3)ncn2)cn1 [Example 26, 4-Chloro-N-(2-fluoro-5-(6-(1-methyl-1H-pyrazol-4-yl)pyrimidin-4-yloxy)phenyl)-3-(trifluoromethyl)benzamide] |
| > 10 | ≤ 10 | ≤ 10 | Cn1cc(-c2cc(Oc3cccc(NC(=O)c4ccc5[nH]cnc5c4)c3)ccn2)cn1 [Example 64, N-(3-(2-(1-Methyl-1H-pyrazol-4-yl)pyridin-4-yloxy)phenyl)-1H-benzo[d]imidazole-5-carboxamide] |
| ≤ 10 | ≤ 10 | ≤ 10 | Cn1cc(-c2cc(Oc3ccc(NC(=O)c4ccc(Cl)c(C(F)(F)F)c4)cc3)ccn2)cn1 [Example 22, 4-Chloro-N-(4-(2-(1-methyl-1H-pyrazol-4-yl)pyridin-4-yloxy)phenyl)-3-(trifluoromethyl)benzamide] |
| ≤ 10 | ≤ 10 | > 10 | COc1ccc(C(=O)Nc2cccc(Oc3ccnc(-c4nnco4)c3)c2)cc1OC1CCCC1 [Example 9, N-(3-(2-(1,3,4-Oxadiazol-2-yl)pyridin-4-yloxy)phenyl)-3-(cyclopentyloxy)-4-methoxybenzamide] |
| > 10 | > 10 | > 10 | Cn1cc(-c2cc(Oc3cccc(NC(=O)c4ccc(Cl)c(C(F)(F)F)c4)c3)ncn2)cn1 [Example 25, 4-Chloro-N-(3-(6-(1-methyl-1H-pyrazol-4-yl)pyrimidin-4-yloxy)phenyl)-3-(trifluoromethyl)benzamide] |
| > 10 | > 10 | > 10 | CC(C#N)c1cccc(C(=O)Nc2cccc(Oc3ccnc(-c4cnn(C)c4)c3)c2)c1 (racemic) [Example 48, (±)-3-(1-Cyanoethyl)-N-(3-(2-(1-methyl-1H-pyrazol-4-yl)pyridin-4-yloxy)phenyl)benzamide] |
| > 10 | ≤ 10 | > 10 | O=C(Nc1cccc(Oc2ccnc(-c3nnco3)c2)c1)c1ccc(Oc2ccccc2)cc1 [Example 5, N-(3-(2-(1,3,4-Oxadiazol-2-yl)pyridin-4-yloxy)phenyl)-4-phenoxybenzamide] |
| > 10 | > 10 | > 10 | Cn1cc(-c2cc(Oc3cccc(NC(=O)c4cccc(-n5cccc5)c4)c3)ccn2)cn1 [Example 58, N-(3-(2-(1-Methyl-1H-pyrazol-4-yl)pyridin-4-yloxy)phenyl)-3-(1H-pyrrol-1-yl)benzamide] |
| > 10 | > 10 | > 10 | Cn1cc(-c2cc(Oc3cccc(NC(=O)c4cccc(OC(F)(F)F)c4)c3)ccn2)cn1 [Example 40, N-(3-(2-(1-Methyl-1H-pyrazol-4-yl)pyridin-4-yloxy)phenyl)-3-(trifluoromethoxy)benzamide] |
| > 10 | ≤ 10 | ≤ 10 | Cn1cc(-c2cc(Oc3cccc(NC(=O)c4ccc(OC(F)(F)F)cc4OC(F)(F)F)c3)ccn2)cn1 [Example 42, N-(3-(2-(1-Methyl-1H-pyrazol-4-yl)pyridin-4-yloxy)phenyl)-2,4-bis(trifluoromethoxy)benzamide] |
| ≤ 10 | ≤ 10 | > 10 | CCOc1cc(C(=O)Nc2cccc(Oc3ccnc(C(=O)NC)c3)c2)cc(OCC)c1OCC [Example 13, N-Methyl-4-(3-(3,4,5-triethoxybenzamido)phenoxy)picolinamide] |
| ≤ 10 | ≤ 10 | > 10 | Cn1cc(-c2cc(Oc3cccc(NC(=O)c4ccccc4C(=O)c4ccccc4)c3)ccn2)cn1 [Example 49, 2-Benzoyl-N-(3-(2-(1-methyl-1H-pyrazol-4-yl)pyridin-4-yloxy)phenyl)benzamide] |
| > 10 | ≤ 10 | > 10 | Cn1cc(-c2cc(Oc3cccc(NC(=O)c4cccc(-c5cccnc5)c4)c3)ccn2)cn1 [Example 33, N-(3-(2-(1-Methyl-1H-pyrazol-4-yl)pyridin-4-yloxy)phenyl)-3-(pyridin-3-yl)benzamide] |
| > 10 | > 10 | > 10 | Cn1cc(-c2cc(Oc3cccc(NC(=O)c4cccc5c4OC(F)(F)O5)c3)ccn2)cn1 [Example 30, 2,2-Difluoro-N-(3-(2-(1-methyl-1H-pyrazol-4-yl)pyridin-4-yloxy)phenyl)benzo[d][1,3]dioxole-4-carboxamide] |
| > 10 | ≤ 10 | ≤ 10 | Cn1cc(-c2cc(Oc3cccc(NC(=O)c4cccc(-n5cnnc5)c4)c3)ccn2)cn1 [Example 38, N-(3-(2-(1-Methyl-1H-pyrazol-4-yl)pyridin-4-yloxy)phenyl)-3-(4H-1,2,4-triazol-4-yl)benzamide] |
